Results taken from PMC7403827 (Clinical and Translational Medicine, 2020).
Where two headings read alike, the source gives them in different places.

Tests used:
[1] = cited from earlier work
[2] = Gefitinib 225mg, Japanese patients, ref [3] Nakagawa K et al., Annals of Oncology 2003, cited from earlier work
[3] = Pharmacokinetic analyses: apatinib and gefitinib plasma concentrations (LC–MS/MS, non‐compartmental); conditions: for half-life: T1/2, gefitinib 250 mg + apatinib 500 or 250 mg
Description: In the two cohorts, PK assessment consisted of a single‐dose‐administration on Cycle 1, Day 1's (C1, D1) test and a continuous‐dose‐administration on Cycle 1, Day 15′s (C1, D15) test. For detailed blood collection administration, see the supplementary materials. […] PK parameters, including maximum plasma concentration (C max), area under the plasma concentration‐time curve (AUC), time to reach maximum plasma concentration (T max), elimination half‐life (T 1/2), steady state concentration (Css), area under the plasma concentration‐time curve for steady state (AUCss), steady state volume of distribution (Vdss), and steady state clearance rate (CLss) were calculated using non‐compartmental methods with Winnonlin 7 software. The AUC was estimated by using the linear trapezoidal rule method and T 1/2 was determined by linear regression of the terminal slope of the logarithmic plasma concentration‐time profile. Descriptive statistics were measured for the PK parameters using mean with its corresponding standard deviation (SD).
In the two cohorts, PK assessment consisted of a single-dose-administration (C1D1) test and a continuous-dose-administration (C1D15) test. Serial peripheral blood samples were collected at pre-dose and 1, 2, 3, 4, 5, 6, 8, 12 and 24 post-dose for the single dose PK test. For the continuous PK test, serial peripheral blood samples were collected at pre-dose and at 0.5, 1, 2, 3, 4, 5, 6, 8, 12, and 24 hours post-dose on […]. Samples were centrifuged, and plasma frozen at −80°C refrigerator until further analysis.
Descriptive statistics (mean and standard deviation) were estimated for PK parameters. Median values and ranges were provided for time to reach maximum plasma concentration.

EGFR‐mutant NSCLC = conditions: cited from earlier work

COc1cc2ncnc(Nc3ccc(F)c(Cl)c3)c2cc1OCCCN1CCOCC1 [Gefitinib]
MTD [1]: 750 mg/day
AUC0-24multi ([2]; multiple-dosage regimen): 5191 (61) ng·h/ml
AUC0-24 [2]: 1986 (58) ng·h/ml
Cmax [2]: 150 (92) ng/ml
Cmaxmulti [2]: 341 (61) ng/ml
Tmax [2]: 5 (3-7) h
Cmaxmulti ([3]; Table S6, Gefitinib 250mg + apatinib, this study, geometric mean, SD): 469 (134) ng/ml
Tmax ([3]; gefitinib 250 mg + apatinib 500 or 250 mg, Day 15 (n = 11), Median (range)): 4 (3‐6) h
AUC(0-t) ([3]; human, plasma, oral, AUC0-24, Table S6, Gefitinib 250mg + apatinib, this study, geometric mean, SD): 3330 ng·h/mL
AUC ([3]; human, plasma, oral, AUC0-24multi, Table S6, Gefitinib 250mg + apatinib, this study, multiple-dosage regimen, geometric mean, SD): 8130 ng·h/mL
AUC ([3]; human, plasma, oral, AUC0‐24, gefitinib 250 mg + apatinib 500 or 250 mg, Day 1 (n = 11), Table 2: Geometric Mean (%CV)): 3440 ng·h/mL
AUC ([3]; human, plasma, oral, AUC0‐24, gefitinib 250 mg + apatinib 500 or 250 mg, Day 15 (n = 11), Table 2: Geometric Mean (%CV)): 7980 ng·h/mL
AUC ([3]; human, plasma, oral, AUC0‐∞, gefitinib 250 mg + apatinib 500 or 250 mg, Day 1 (n = 11), Geometric Mean (%CV)): 6400 ng·h/mL
AUC ([3]; human, plasma, oral, AUC0‐∞, gefitinib 250 mg + apatinib 500 or 250 mg, Day 15 (n = 11), Geometric Mean (%CV)): 18100 ng·h/mL
AUC ([3]; human, plasma, oral, AUCss, steady state, Gefitinib 250mg + apatinib, Mean±SD): 7220 ± 1730 ng·h/mL
clearance ([3]; human, plasma, oral, CL, gefitinib 250 mg + apatinib 500 or 250 mg, Day 1 (n = 11), Mean (SD)): 683 mL/min
clearance ([3]; human, plasma, oral, CL, gefitinib 250 mg + apatinib 500 or 250 mg, Day 15 (n = 11), Mean (SD)): 533 mL/min
clearance ([3]; human, plasma, oral, CLss, steady state, Gefitinib 250mg + apatinib, Mean±SD): 617 mL/min
Cmax ([3]; human, plasma, oral, Table S6, Gefitinib 250mg + apatinib, this study, geometric mean, SD): 488 ± 28 ng/mL
Cmax ([3]; human, plasma, oral, gefitinib 250 mg + apatinib 500 or 250 mg, Day 1 (n = 11), Table 2: Geometric Mean (%CV)): 272 ng/mL
Cmax ([3]; human, plasma, oral, gefitinib 250 mg + apatinib 500 or 250 mg, Day 15 (n = 11), Table 2: Geometric Mean (%CV)): 465 ng/mL
half-life ([3]; human, plasma, oral, Day 1 (n = 11), Mean (SD)): 1260 min
half-life ([3]; human, plasma, oral, Day 15 (n = 11), Mean (SD)): 1800 min
Tmax ([3]; human, plasma, oral, Tmax, Table S6, Gefitinib 250mg + apatinib, this study, geometric mean, SD): 3.9 h
Tmax ([3]; human, plasma, oral, Tmax, gefitinib 250 mg + apatinib 500 or 250 mg, Day 1 (n = 11), Median (range)): 3 h
Tmax ([3]; human, plasma, oral, Tmax, gefitinib 250 mg + apatinib 500 or 250 mg, Day 15 (n = 11), Median (range)): 3 h
Vd ([3]; human, plasma, oral, Vd, gefitinib 250 mg + apatinib 500 or 250 mg, Day 1 (n = 11), Mean (SD)): 1100 L
Vd ([3]; human, plasma, oral, Vd, gefitinib 250 mg + apatinib 500 or 250 mg, Day 15 (n = 11), Mean (SD)): 1330 L
Vd ([3]; human, plasma, oral, Vdss, steady state, Gefitinib 250mg + apatinib, Mean±SD): 880 ± 234 L

C=CC(=O)Nc1cc(Nc2nccc(-c3cn(C)c4ccccc34)n2)c(OC)cc1N(C)CCN(C)C [Osimertinib]
mPFS (EGFR‐mutant NSCLC; AURA3 study): 10.1 months

C#Cc1cccc(Nc2ncnc3cc(OCCOC)c(OCCOC)cc23)c1 [erlotinib]
mPFS (EGFR‐mutant NSCLC; ARTEMIS (CTONG 1509) study): 11.3 months
PFS (EGFR‐mutant NSCLC; JO25567 study): 9.7 months
PFS (EGFR‐mutant NSCLC; RELAY study): 12.4 months
